{"source": "ChEMBL document CHEMBL1124752", "about": "“Cyclobut-A and cyclobut-G: broad-spectrum antiviral agents with potential utility for the therapy of AIDS” (J Med Chem, 1990)", "key": {"[1]": {"system": "Human immunodeficiency virus 1", "assay": "Tested for the determination of percentage toxicity at 100 uM against HIV-1 in ATH8 cells", "format": "organism-based", "settings": "human immunodeficiency virus 1, ath-8, 100 µM"}, "[2]": {"system": "Human immunodeficiency virus 1", "assay": "Tested for the determination of percentage protection atuM against HIV-1 in ATH8 Cells", "format": "functional"}, "[3]": {"system": "Human immunodeficiency virus 1", "assay": "Tested for the determination of percentage toxicity at 500 uM against HIV-1 in ATH8 cells", "format": "organism-based", "settings": "human immunodeficiency virus 1, ath-8, 500 µM"}, "[4]": {"system": "Human immunodeficiency virus 1", "assay": "Tested for the determination of percentage toxicity at 2 uM against HIV-1 in ATH8 cells", "format": "organism-based", "settings": "human immunodeficiency virus 1, ath-8, 2 µM"}, "[5]": {"system": "Human immunodeficiency virus 1", "assay": "Tested for the determination of percentage toxicity at 10 uM against HIV-1 in ATH8 cells", "format": "organism-based", "settings": "human immunodeficiency virus 1, ath-8, 10 µM"}, "[6]": {"system": "Human immunodeficiency virus 1", "assay": "Tested for the determination of percentage protection at 100 uM against HIV-1 in ATH8 cells", "format": "functional, ATH-8"}, "[7]": {"system": "Human immunodeficiency virus 1", "assay": "Tested for the determination of percentage protection atuM against HIV-1 in ATH8 cells", "format": "functional, ATH-8"}, "[8]": {"system": "Human immunodeficiency virus 1", "assay": "Tested for the determination of percentage protection at 10 uM against HIV-1 in ATH8", "format": "functional"}, "[9]": {"system": "Murid betaherpesvirus 1", "assay": "Tested for the effective dose required to inhibit systemic MCMV in infected mice", "format": "functional"}, "[10]": {"system": "Murid betaherpesvirus 1", "assay": "Tested for mean day to death of nonsurvivors against systemic MCMV infection in mice at 1.9 mg/kg per day", "format": "functional"}, "[11]": {"system": "Murid betaherpesvirus 1", "assay": "Number of survivors per number of systemic MCMV infected mice treated with 33.4 mg/kg per day; 15/15", "format": "functional"}, "[12]": {"system": "Murid betaherpesvirus 1", "assay": "In vitro antiviral activity tested against MCMV Smith strain by plaque reduction assay in mouse embryo fibroblasts.", "format": "functional", "settings": "read-out: ID50 (the source's name)"}, "[13]": {"system": "Human betaherpesvirus 5", "assay": "In vitro antiviral activity tested against HCMV, CH strain by plaque reduction assay in human foreskin fibroblasts.", "format": "functional"}, "[14]": {"system": "Murid betaherpesvirus 1", "assay": "In vitro antiviral activity tested against MCMV Smith strain by plaque reduction assay in mouse embryo fibroblasts.", "settings": "read-out: ED50 (the source's name)"}, "[15]": {"system": "Human betaherpesvirus 5", "assay": "In vitro antiviral activity tested against HCMV, AD169 strain by plaque reduction assay in human foreskin fibroblasts.", "format": "functional"}, "[16]": {"system": "Human betaherpesvirus 5", "assay": "In vitro antiviral activity tested against HCMV, Davis strain by plaque reduction assay in human foreskin fibroblasts.", "format": "functional"}, "[17]": {"system": "Human betaherpesvirus 5", "assay": "In vitro antiviral activity tested against HCMV, LA strain by plaque reduction assay in human foreskin fibroblasts.", "format": "functional"}, "[18]": {"system": "Murid betaherpesvirus 1", "assay": "Number of survivors per number of systemic MCMV infected mice treated with 11.2 mg/kg per day; 15/15", "format": "functional"}, "[19]": {"system": "Human betaherpesvirus 5", "assay": "In vitro antiviral activity tested against HCMV, EC strain by plaque reduction assay in human foreskin fibroblasts.", "format": "functional"}, "[20]": {"system": "Murid betaherpesvirus 1", "assay": "Number of survivors per number of systemic MCMV infected mice treated with 3.8 mg/kg per day; 10/15", "format": "functional"}, "[21]": {"system": "Human alphaherpesvirus 2", "assay": "Tested for mean day to death of nonsurvivors against HSV-2 encephalitis in mice at 31.2 mg/kg per day", "format": "functional"}, "[22]": {"system": "Human alphaherpesvirus 1", "assay": "Tested for mean day to death of nonsurvivors against HSV-1 infection in mice at 3.1 mg/kg per day", "format": "functional"}, "[23]": {"system": "Human alphaherpesvirus 2", "assay": "Tested for mean day to death of nonsurvivors against HSV-2 encephalitis in mice at 7.8 mg/kg per day", "format": "functional"}, "[24]": {"system": "Human alphaherpesvirus 2", "assay": "Number of survivors per number of HSV-2 infected mice treated with 7.8 mg/kg per day; 0/10", "format": "functional"}, "[25]": {"system": "Human alphaherpesvirus 2", "assay": "Tested for the effective dose required to inhibit HSV-2 encephalitis in infected mice", "format": "functional"}, "[26]": {"system": "Human alphaherpesvirus 2", "assay": "Tested for mean day to death of nonsurvivors against HSV-2 encephalitis in mice at 125 mg/kg per day", "format": "functional"}, "[27]": {"system": "Human alphaherpesvirus 1", "assay": "Tested for mean day to death of nonsurvivors against HSV-1 infection in mice at 12.5 mg/kg per day", "format": "functional"}, "[28]": {"system": "Human alphaherpesvirus 2", "assay": "Number of survivors per number of HSV-2 infected mice treated with 125 mg/kg per day; 3/10", "format": "functional"}, "[29]": {"system": "Human alphaherpesvirus 2", "assay": "Number of survivors per number of HSV-2 infected mice treated with 31.2 mg/kg per day; 0/10", "format": "functional"}, "[30]": {"settings": "read-out: ED50 (the source's name)"}, "[31]": {"settings": "read-out: ID50 (the source's name)"}}, "data": [{"smiles": "Nc1nc2c(ncn2[C@H]2CC[C@@H](CO)O2)c(=O)[nH]1", "values": [{"measurement": "Cytotoxicity", "setting": "[1]", "result": 4, "unit": "%"}, {"measurement": "Protection", "setting": "[2]", "result": 54, "unit": "%"}, {"measurement": "Cytotoxicity", "setting": "[3]", "result": 50, "unit": "%"}, {"measurement": "Cytotoxicity", "setting": "[4]", "result": 0, "unit": "%"}, {"measurement": "Cytotoxicity", "setting": "[5]", "result": 0, "unit": "%"}, {"measurement": "Protection", "setting": "[6]", "result": 99, "unit": "%"}, {"measurement": "Protection", "setting": "[7]", "result": 48, "unit": "%"}, {"measurement": "Protection", "setting": "[8]", "result": 100, "unit": "%"}]}, {"smiles": "Nc1nc2c(ncn2COC(CO)CO)c(=O)[nH]1", "note": "[GANCICLOVIR]", "values": [{"measurement": "ED50", "setting": "[9]", "result": "< 1.9", "unit": "mg/kg/day"}, {"measurement": "MDD", "setting": "[10]", "result": 7.6}, {"measurement": "Survivors / treated", "setting": "[11]", "result": 15}, {"measurement": "IC50", "setting": "[12]", "result": "> 100", "unit": "µg/mL"}, {"measurement": "EC50", "setting": "[13]; [30]", "result": 3.1, "unit": "µg/mL"}, {"measurement": "IC50", "setting": "[13]; [31]", "result": "> 100", "unit": "µg/mL"}, {"measurement": "EC50", "setting": "[14]", "result": 1, "unit": "µg/mL"}, {"measurement": "EC50", "setting": "[15]; [30]", "result": 2.7, "unit": "µg/mL"}, {"measurement": "IC50", "setting": "[15]; [31]", "result": "> 100", "unit": "µg/mL"}, {"measurement": "EC50", "setting": "[16]; [30]", "result": 3.6, "unit": "µg/mL"}, {"measurement": "IC50", "setting": "[16]; [31]", "result": "> 100", "unit": "µg/mL"}, {"measurement": "EC50", "setting": "[17]; [30]", "result": 2.4, "unit": "µg/mL"}, {"measurement": "IC50", "setting": "[17]; [31]", "result": "> 100", "unit": "µg/mL"}, {"measurement": "Survivors / treated", "setting": "[18]", "result": 15}, {"measurement": "EC50", "setting": "[19]; [30]", "result": 2.8, "unit": "µg/mL"}, {"measurement": "IC50", "setting": "[19]; [31]", "result": "> 100", "unit": "µg/mL"}, {"measurement": "Survivors / treated", "setting": "[20]", "result": 10}]}, {"smiles": "Nc1ncnc2c1ncn2[C@@H]1O[C@H](CO)[C@@H](O)[C@@H]1O", "note": "[VIDARABINE]", "values": [{"measurement": "MDD", "setting": "[21]", "result": 9.3}, {"measurement": "MDD", "setting": "[22]", "result": 6.9}, {"measurement": "MDD", "setting": "[23]", "result": 7.9}, {"measurement": "Survivors / treated", "setting": "[24]", "result": 0}, {"measurement": "ED50", "setting": "[25]", "result": "> 125", "unit": "mg/kg/day"}, {"measurement": "MDD", "setting": "[26]", "result": 11.1}, {"measurement": "MDD", "setting": "[27]", "result": 13.5}, {"measurement": "Survivors / treated", "setting": "[28]", "result": 3}, {"measurement": "Survivors / treated", "setting": "[29]", "result": 0}]}]}
